Reference: patent US20120029187A1, “HALOALKYLSULFONANILIDE DERIVATIVE” (Nissan Chemical Industries, Ltd., priority 2009, published 2012)

Columns and labels:
Format in all cases: in vivo
[1] = system: barnyardgrass; experiment: Test Example 1: herbicidal effects in preemergence treatment under submerged conditions; conditions: dose 2.52 g/a
How it was run: (§1)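 Scoring 0 (<5% mortality) to 5 (≥90%) was done three weeks after preemergence application to the water surface of submerged (4 cm) alluvial soil, doses given as g per are. Weeds were seeded and 2.5-leaf rice transplanted on the treatment day; greenhouse at 25–30 °C.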

[2] = system: bulrush; experiment: as above; conditions: dose 2.52 g/a
How it was run: as §1

[3] = system: ducksalad; experiment: as above; conditions: dose 2.52 g/a
How it was run: as §1

[4] = system: transplanted rice; experiment: Test Example 1: preemergence treatment under submerged conditions, effect on crop; conditions: dose 2.52 g/a
How it was run: as §1

[5] = system: barnyardgrass; experiment: Test Example 2: herbicidal effects during the vegetation period under submerged conditions; conditions: treatment during the vegetation period under submerged conditions; dose 2.52 g/a
How it was run: (§2)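 Barnyardgrass, bulrush and ducksalad were co-sown in alluvial soil flooded to 4 cm and grown in a greenhouse at 25 to 30° C. At the 1- or 2-leaf stage, water-diluted emulsifiable concentrates went onto the water surface at set doses (g/a). Herbicidal effect was scored three weeks later on a graded scale.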

[6] = system: bulrush; experiment: as above; conditions: treatment during the vegetation period under submerged conditions; dose 2.52 g/a
How it was run: as §2

[7] = system: ducksalad; experiment: as above; conditions: treatment during the vegetation period under submerged conditions; dose 2.52 g/a
How it was run: as §2

[8] = system: Italian ryegrass; experiment: Test Example 3: herbicidal effects in soil treatment; conditions: dose 3.2 g/a
How it was run: (§3)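 Seeds were sown in sterilized diluvial soil and covered with about 1.5 cm of soil. Compounds, formulated as emulsifiable concentrates and diluted with water, were sprayed evenly over the soil surface at set doses in g/a. Herbicidal effect was scored on a rating scale three weeks later.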

[9] = system: barnyardgrass; experiment: as above; conditions: dose 3.2 g/a
How it was run: as §3

[10] = system: beadstraw; experiment: as above; conditions: dose 3.2 g/a
How it was run: as §3

[11] = system: common chickweed; experiment: as above; conditions: dose 3.2 g/a
How it was run: as §3

[12] = system: common lambsquater; experiment: as above; conditions: dose 3.2 g/a
How it was run: as §3

[13] = system: common ragweed; experiment: as above; conditions: dose 3.2 g/a
How it was run: as §3

[14] = system: giant foxtail; experiment: as above; conditions: dose 3.2 g/a
How it was run: as §3

[15] = system: large crabgrass; experiment: as above; conditions: dose 3.2 g/a
How it was run: as §3

[16] = system: posumbu knotweed; experiment: as above; conditions: dose 3.2 g/a
How it was run: as §3

[17] = system: redroot pigweed; experiment: as above; conditions: dose 3.2 g/a
How it was run: as §3

[18] = system: velvetleaf; experiment: as above; conditions: dose 3.2 g/a
How it was run: as §3

[19] = system: water foxtail; experiment: as above; conditions: dose 3.2 g/a
How it was run: as §3

[20] = system: wild oat; experiment: as above; conditions: dose 3.2 g/a
How it was run: as §3

[21] = system: Italian ryegrass; experiment: Test Example 4: herbicidal effect in foliage treatment; conditions: dose 3.2 g/a, three weeks after the application
How it was run: (§4)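 A uniform foliar spray of emulsifiable concentrate, diluted with water to give the stated g/a dose, was applied to plants raised for 14 days from seed in sterilized diluvial soil at 25 to 30° C. Herbicidal effects were scored three weeks later.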

[22] = system: barnyardgrass; experiment: as above; conditions: dose 3.2 g/a, three weeks after the application
How it was run: as §4

[23] = system: beadstraw; experiment: as above; conditions: dose 3.2 g/a, three weeks after the application
How it was run: as §4

[24] = system: common chickweed; experiment: as above; conditions: dose 3.2 g/a, three weeks after the application
How it was run: as §4

[25] = system: common lambsquater; experiment: as above; conditions: dose 3.2 g/a, three weeks after the application
How it was run: as §4

[26] = system: common ragweed; experiment: as above; conditions: dose 3.2 g/a, three weeks after the application
How it was run: as §4

[27] = system: giant foxtail; experiment: as above; conditions: dose 3.2 g/a, three weeks after the application
How it was run: as §4

[28] = system: large crabgrass; experiment: as above; conditions: dose 3.2 g/a, three weeks after the application
How it was run: as §4

[29] = system: posumbu knotweed; experiment: as above; conditions: dose 3.2 g/a, three weeks after the application
How it was run: as §4

[30] = system: redroot pigweed; experiment: as above; conditions: dose 3.2 g/a, three weeks after the application
How it was run: as §4

[31] = system: velvetleaf; experiment: as above; conditions: dose 3.2 g/a, three weeks after the application
How it was run: as §4

[32] = system: water foxtail; experiment: as above; conditions: dose 3.2 g/a, three weeks after the application
How it was run: as §4

[33] = system: wild oat; experiment: as above; conditions: dose 3.2 g/a, three weeks after the application
How it was run: as §4

[34] = system: barnyardgrass; experiment: Comparative Example 1: herbicidal effects in preemergence treatment on barnyardgrass under submerged conditions; conditions: applied to water surface on the day of seeding, three weeks after application
Excerpt: Comparative Example 1 Test on the Herbicidal Effects in Preemergence Treatment on Barnyardgrass Under Submerged Conditions Alluvial soil was put in 1/30000-are styrol cups and admixed with water so that it was submerged at a depth of 4 cm. In each cup, seeds of barnyardgrass were sown, and on the same day as the seeding, emulsifiable concentrates containing compounds of the present invention formulated in accordance with Formulation Example 2 were applied to the water surfaces at predetermined doses after diluted with water. The cups were placed in a greenhouse at 25 to 30° C. to grow the plants. Three weeks after the application, the herbicidal effects against barnyardgrass were determined on the following evaluation scale. The symbol A in the table means barnyardgrass.

[35] = system: barnyardgrass; experiment: Comparative Example 2: herbicidal effects on barnyardgrass during the vegetation period under submerged conditions; conditions: applied to water surface at the 2- or 2.5-leaf stage, three weeks after application
Procedure: Comparative Example 2 Test on the Herbicidal Effects on Barnyardgrass During the Vegetation Period Under Submerged Conditions Alluvial soil was put in 1/30000-are styrol cups and admixed with water so that it was submerged at a depth of 4 cm. In each cup, seeds of barnyardgrass were sown, and the cups were placed in a greenhouse at 25 to 30° C. to grow the plants. When the barnyardgrass reached the 2- or 2.5-leaf stage, emulsifiable concentrates containing compounds of the present invention and the comparative compounds formulated in accordance with Formulation Example 2 were applied to the water surfaces at predetermined doses after diluted with water. Three weeks after the application, the herbicidal effects were determined on the same evaluation scale as in Test Example 1. The symbol A in the table is the same as defined above.

SMILES | A: barnyardgrass, herbicidal effect (evaluation scale 0-5) [1] | B: bulrush, herbicidal effect (evaluation scale 0-5) [2] | C: ducksalad, herbicidal effect (evaluation scale 0-5) [3] | a: transplanted rice, effect on crop (evaluation scale 0-5) [4] | A: barnyardgrass, herbicidal effect (evaluation scale 0-5) [5] | B: bulrush, herbicidal effect (evaluation scale 0-5) [6] | C: ducksalad, herbicidal effect (evaluation scale 0-5) [7] | herbicidal effect, H: Italian ryegrass [8] | herbicidal effect, A: barnyardgrass [9] | herbicidal effect, O: beadstraw [10] | herbicidal effect, N: common chickweed [11] | herbicidal effect, L: common lambsquater [12] | herbicidal effect, J: common ragweed [13] | herbicidal effect, E: giant foxtail [14] | herbicidal effect, D: large crabgrass [15] | herbicidal effect, M: posumbu knotweed [16] | herbicidal effect, K: redroot pigweed [17] | herbicidal effect, I: velvetleaf [18] | herbicidal effect, G: water foxtail [19] | herbicidal effect, F: wild oat [20] | also measured
CC(C)COC(=O)N(c1ccccc1CN1COCN(C)C1=O)S(=O)(=O)C(F)(F)F [IV-4] | 5 (mortality of 90% or above (nearly complete death)) | 5 (mortality of 90% or above (nearly complete death)) | 4 (mortality of at least 70% and less than 90%) | 0 (mortality of less than 5% (almost ineffective)) | 5 (mortality of 90% or above (nearly complete death)) | 5 (mortality of 90% or above (nearly complete death)) | 5 (mortality of 90% or above (nearly complete death)) | 0 (mortality of less than 5% (almost ineffective)) | 4 (mortality of at least 70% and less than 90%) | 0 (mortality of less than 5% (almost ineffective)) | 0 (mortality of less than 5% (almost ineffective)) | 0 (mortality of less than 5% (almost ineffective)) | 0 (mortality of less than 5% (almost ineffective)) | 3 (mortality of at least 40% and less than 70%) | 4 (mortality of at least 70% and less than 90%) | 0 (mortality of less than 5% (almost ineffective)) | 0 (mortality of less than 5% (almost ineffective)) | 0 (mortality of less than 5% (almost ineffective)) | 4 (mortality of at least 70% and less than 90%) | 0 (mortality of less than 5% (almost ineffective)) | H: Italian ryegrass, herbicidal effect [21]: 1 (mortality of at least 5% and less than 20%); A: barnyardgrass, herbicidal effect [22]: 4 (mortality of at least 70% and less than 90%); O: beadstraw, herbicidal effect [23]: 0 (mortality of less than 5% (almost ineffective)); N: common chickweed, herbicidal effect [24]: 3 (mortality of at least 40% and less than 70%); L: common lambsquater, herbicidal effect [25]: 0 (mortality of less than 5% (almost ineffective)); J: common ragweed, herbicidal effect [26]: 0 (mortality of less than 5% (almost ineffective)); E: giant foxtail, herbicidal effect [27]: 3 (mortality of at least 40% and less than 70%); D: large crabgrass, herbicidal effect [28]: 3 (mortality of at least 40% and less than 70%); M: posumbu knotweed, herbicidal effect [29]: 0 (mortality of less than 5% (almost ineffective)); K: redroot pigweed, herbicidal effect [30]: 0 (mortality of less than 5% (almost ineffective)); I: velvetleaf, herbicidal effect [31]: 3 (mortality of at least 40% and less than 70%); G: water foxtail, herbicidal effect [32]: 4 (mortality of at least 70% and less than 90%); F: wild oat, herbicidal effect [33]: 0 (mortality of less than 5% (almost ineffective))
CCOC(=O)N(c1ccccc1CN1COCN(CC)C1=O)S(=O)(=O)C(F)(F)F [IV-6] | 5 (mortality of 90% or above (nearly complete death)) | 5 (mortality of 90% or above (nearly complete death)) | 5 (mortality of 90% or above (nearly complete death)) | 0 (mortality of less than 5% (almost ineffective)) | 5 (mortality of 90% or above (nearly complete death)) | 5 (mortality of 90% or above (nearly complete death)) | 5 (mortality of 90% or above (nearly complete death)) | 0 (mortality of less than 5% (almost ineffective)) | 5 (mortality of 90% or above (nearly complete death)) | 4 (mortality of at least 70% and less than 90%) | 4 (mortality of at least 70% and less than 90%) | 0 (mortality of less than 5% (almost ineffective)) | 0 (mortality of less than 5% (almost ineffective)) | 5 (mortality of 90% or above (nearly complete death)) | 5 (mortality of 90% or above (nearly complete death)) | 0 (mortality of less than 5% (almost ineffective)) | 1 (mortality of at least 5% and less than 20%) | 5 (mortality of 90% or above (nearly complete death)) | 5 (mortality of 90% or above (nearly complete death)) | 0 (mortality of less than 5% (almost ineffective)) | H: Italian ryegrass, herbicidal effect [21]: 2 (mortality of at least 20% and less than 40%); A: barnyardgrass, herbicidal effect [22]: 4 (mortality of at least 70% and less than 90%); O: beadstraw, herbicidal effect [23]: 4 (mortality of at least 70% and less than 90%); N: common chickweed, herbicidal effect [24]: 4 (mortality of at least 70% and less than 90%); L: common lambsquater, herbicidal effect [25]: 3 (mortality of at least 40% and less than 70%); J: common ragweed, herbicidal effect [26]: 3 (mortality of at least 40% and less than 70%); E: giant foxtail, herbicidal effect [27]: 4 (mortality of at least 70% and less than 90%); D: large crabgrass, herbicidal effect [28]: 4 (mortality of at least 70% and less than 90%); M: posumbu knotweed, herbicidal effect [29]: 0 (mortality of less than 5% (almost ineffective)); K: redroot pigweed, herbicidal effect [30]: 0 (mortality of less than 5% (almost ineffective)); I: velvetleaf, herbicidal effect [31]: 5 (mortality of 90% or above (nearly complete death)); G: water foxtail, herbicidal effect [32]: 5 (mortality of 90% or above (nearly complete death)); F: wild oat, herbicidal effect [33]: 0 (mortality of less than 5% (almost ineffective))
CC(C)COC(O)N(c1ccccc1CN1CCCOC1=O)S(=O)(=O)C(F)(F)F (stereo not drawn) [a, reference compound] |  |  |  |  |  |  |  |  |  |  |  |  |  |  |  |  |  |  |  |  | herbicidal effect, A (barnyardgrass) ([34]; dose 0.16 g/a): 0 (mortality of less than 5% (almost ineffective)); herbicidal effect, A (barnyardgrass) ([34]; dose 0.64 g/a): 5 (mortality of 90% or above (nearly complete death)); herbicidal effect, A (barnyardgrass) ([34]; dose 2.52 g/a): 5 (mortality of 90% or above (nearly complete death)); herbicidal effect, A (barnyardgrass) ([35]; dose 0.16 g/a): 0 (mortality of less than 5% (almost ineffective)); herbicidal effect, A (barnyardgrass) ([35]; dose 0.64 g/a): 0 (mortality of less than 5% (almost ineffective)); herbicidal effect, A (barnyardgrass) ([35]; dose 2.52 g/a): 5 (mortality of 90% or above (nearly complete death))
